Consider two molecules from patent US20190336498A1, “METHODS AND COMPOSITIONS FOR THE TREATMENT OF CUSHING'S SYNDROME USING 2S, 4R KETOCONAZOLE” (STRONGBRIDGE DUBLIN LIMITED, priority 2014, published 2019).

One data set deals with 11-β-hydroxylase. As to conditions: comparison in words; cited from earlier work.
The next data set addresses T1, 14-α-demethylase (Rattus norvegicus, UniProt Q64654).
T1 sequence (Q64654 1-503): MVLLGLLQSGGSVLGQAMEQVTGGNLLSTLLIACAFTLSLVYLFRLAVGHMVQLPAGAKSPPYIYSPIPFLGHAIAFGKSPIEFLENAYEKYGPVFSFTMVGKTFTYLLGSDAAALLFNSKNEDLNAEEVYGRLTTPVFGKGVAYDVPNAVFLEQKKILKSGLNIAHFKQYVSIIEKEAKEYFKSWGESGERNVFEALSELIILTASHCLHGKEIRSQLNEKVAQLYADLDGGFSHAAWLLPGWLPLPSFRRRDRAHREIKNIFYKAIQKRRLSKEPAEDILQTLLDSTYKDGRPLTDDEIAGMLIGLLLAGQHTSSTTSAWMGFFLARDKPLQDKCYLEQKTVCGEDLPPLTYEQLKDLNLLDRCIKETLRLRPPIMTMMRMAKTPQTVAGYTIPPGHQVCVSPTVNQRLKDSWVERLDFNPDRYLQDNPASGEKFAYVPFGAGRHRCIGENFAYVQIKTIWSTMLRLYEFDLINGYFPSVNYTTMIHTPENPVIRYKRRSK
As to conditions: comparison in words; cited from earlier work.

A further data set has as its system C-reactive protein (CRP). The following applies: clinical study; cited from earlier work.
The next data set relates to cholesterol. The following applies: vs the other enantiomer; cited from earlier work.
In the next data set the test system is corticosterone. The following applies: rats; vs the other enantiomers or racemic ketoconazole; cited from earlier work.
Data set [1] is described as follows: Safety and tolerability in healthy volunteers and subjects with Type 2 Diabetes Mellitus. It is filed as in vivo, human. The following applies: 200 mg to 600 mg QD for up to 14 days and 150 mg to 450 mg for up to 4 months; healthy volunteers and T2DM subjects.
Data set [2] is described as follows: Pharmacokinetics of the enantiomers in humans after oral administration of ketoconazole. As to conditions: following oral administration of ketoconazole (racemic). It is filed as in vivo. The text has this: Reduced hepatic exposure to the 2S,4R enantiomer may be of value in reducing the liver function abnormalities observed following administration of racemic ketoconazole.

A further data set relates to QTc interval. The data set is described as follows: QTc interval prolongation. As to conditions: in vivo. An excerpt:
The potential risk of protracted, drug induced prolongation of the QTc interval on the ECG is the development of an arrhythmia called torsade de pointes. […] Subjects with CS may have greater than normal QTc intervals and treatment that reduces cortisol levels may result in reductions in QTc intervals.

The next data set relates to Cushing's syndrome. As to conditions: off-label, titrated to effect; cited from earlier work.

With `CC(=O)N1CCN(c2ccc(OC[C@@H]3CO[C@@](Cn4ccnc4)(c4ccc(Cl)cc4Cl)O3)cc2)CC1` (racemic) [2S,4R ketoconazole enantiomer], at 11-β-hydroxylase, the “IC50 toward the key enzyme in cortisol synthesis (11-α-hydroxylase) compared with the other enantiomer” value is “significantly lower IC50” and the “IC50 toward the key enzyme in cortisol synthesis (11-β-hydroxylase) compared with the other enantiomer” value is given as “significantly lower IC50”. Moreover, on 14-α-demethylase, the “IC50 toward a key enzyme in cholesterol synthesis (14-α-demethylase) compared with the other enantiomer” value is reported as “significantly lower IC50”. The “reduction in C-reactive protein (CRP) levels” value in the data set on C-reactive protein (CRP) is “dose response reduction”. Moreover, the reduction of cholesterol result in the data set on cholesterol is given as “appeared to reduce cholesterol more than the other enantiomer”. Further, the “potency with respect to reducing corticosterone” value with corticosterone is “more potent”. The safety and tolerability result in [1] is “generally safe and well tolerated”. Moreover, the “blood concentrations of the 2S,4R enantiomer exceed those of the 2R,4S enantiomer” value in [2] is “approximately 3 fold”. The “prolongation of QTc intervals” value in the data set on QTc interval is given as “capability to prolong QTc intervals in a dose (concentration) related manner”.
Consider `CC(=O)N1CCN(c2ccc(OCC3COC(Cn4ccnc4)(c4ccc(Cl)cc4Cl)O3)cc2)CC1` (racemic) [racemic ketoconazole, reference compound], for which the “reduction in C-reactive protein (CRP) levels” value with C-reactive protein (CRP) is reported as “no reduction”. Besides, the “therapeutic success rate in CS” value in the data set with Cushing's syndrome is reported as 50-70%.
